Results published in US7601709.
Read-outs that look alike come from different tables or passages of the source.

Conditions: rcm bond, 40.0 °C

Compound CCOC(=O)[C@@]12C[C@H]1C=CCCCCC[C@H](NC(=O)OC(C)(C)C)C(=O)N1C[C@@H](O)C[C@H]1C(=O)N2 has a ring closure, yield of all isomers (from C=CCCCCC[C@H](NC(=O)OC(C)(C)C)C(=O)N1C[C@@H](O)C[C@H]1C(=O)N[C@]1(C(=O)OCC)C[C@H]1C=C, Hoveyda 1st generation catalyst, DCM, 14.45 mM, 12.0 h) of 87%.

CCOC(=O)[C@@]12C[C@H]1C=CCCCCC[C@H](NC(=O)OC(C)(C)C)C(=O)N1C[C@H](n3nnc(-c4ccccc4)n3)C[C@H]1C(=O)N2 gave a ring closure, yield of all isomers (from C=CCCCCC[C@H](NC(=O)OC(C)(C)C)C(=O)N1C[C@H](n2nnc(-c3ccccc3)n2)C[C@H]1C(=O)N[C@]1(C(=O)OCC)C[C@H]1C=C, Hoveyda catalyst, DCM, 2.18 mM, 20.0 h) of 85.5%.

With CCOC(=O)[C@@]12C[C@H]1C=CCCCCC[C@H](NC(=O)OC(C)(C)C)C(=O)N1C[C@H](c3nnn(Cc4ccc(-c5ccccc5)cc4)n3)C[C@H]1C(=O)N2 the ring closure, yield of all isomers (from C=CCCCCC[C@H](NC(=O)OC(C)(C)C)C(=O)N1C[C@H](c2nnn(Cc3ccc(-c4ccccc4)cc3)n2)C[C@H]1C(=O)N[C@]1(C(=O)OCC)C[C@H]1C=C, Hoveyda's catalyst, CH2Cl2, 10.0 mM, 16.0 h) was 91.3%.
